Assay results as given in ChEMBL document CHEMBL1133554, “Synthesis, structure-activity relationships, and pharmacological profile of 9-amino-4-oxo-1-phenyl-3,4,6,7-tetrahydro[1,4]diazepino[6, 7,1-hi]indoles: discovery of potent, selective phosphodiesterase type 4 inhibitors” (J Med Chem, 2000).

Columns and labels:
[1] = target: Phosphodiesterase, PDE1/PDE5 (Homo sapiens, UniProt O76074+P54750+Q01064+Q14123); assay: Inhibition of phosphodiesterase 1/5 isozyme (PDE1/5) mixture isolated from the guinea pig trachea.; parameters: species or system Cavia porcellus; settings: target entry is the homologue from another species
Phosphodiesterase 4 [2] = target: T1, Phosphodiesterase 4 (Homo sapiens, UniProt P27815+Q08499+Q07343+Q08493); assay: Inhibition of phosphodiesterase type 4 isozyme (PDE4) from the U937 human cell line.; assay type: cell-based; settings: u-937
Phosphodiesterase 3 = Phosphodiesterase 3 (Homo sapiens, UniProt Q14432+Q13370); assay: Inhibition of phosphodiesterase 3 (PDE3) isolated from the dog aorta; assay type: protein assay, Canis lupus familiaris; settings: target entry is the homologue from another species
Rattus norvegicus = assay: In vivo inhibition of antigen induced eosinophil recruitment in Brown-Norvway Rats at 10 mg/kg peroral dose; assay type: functional; settings: route oral
[3] = In vitro inhibition of TNF-alpha release from human peripheral blood monocytes; assay type: functional
[4] = In vitro inhibition of TNF-alpha-release from human whole blood; assay type: functional
[5] = In vivo inhibition of LPS-stimulated TNF-alpha release in Wistar rats at 10 mg/kg oral dose; assay type: functional; settings: Rattus norvegicus
Phosphodiesterase 4 [6] = target: T1, Phosphodiesterase 4; assay: PDE4-related emetic activity in ferrets after intravenous administration at 10 mg/kg; assay type: functional, organism-based; parameters: dose 10 mg/kg; settings: Mustela putorius furo, target entry is the homologue from another species
Phosphodiesterase 4 [7] = target: T1, Phosphodiesterase 4; assay: PDE4-related emetic activity in ferrets after intravenous administration at 40 mg/kg; assay type: functional, organism-based; parameters: dose 40 mg/kg; settings: Mustela putorius furo, target entry is the homologue from another species

Compound: O=C(N[C@@H]1N=C(c2ccccc2)c2cc(N3CCCC3)cc3c2N(CC3)C1=O)c1ccncc1
- IC50 [1]: 34 µM
- IC50 (Phosphodiesterase 4 [2]): 1.4 µM
- IC50 (Phosphodiesterase 3): 18 µM

Compound: Nc1c(Cl)cc(C(=O)N[C@@H]2N=C(c3ccccc3)c3cc(N4CCCC4)cc4c3N(CC4)C2=O)cc1Cl
- IC50 [1]: 39.2 µM
- IC50 (Phosphodiesterase 4 [2]): 0.08 µM
- IC50 (Phosphodiesterase 3): 10.6 µM

Compound: COc1ccc(C2CNC(=O)C2)cc1OC1CCCC1 (stereo not given) [ROLIPRAM]
- ED50 (Rattus norvegicus): 4.66 mg/kg
- IC50 [3]: 0.083 µM
- IC50 [4]: 0.94 µM
- inhibition in vivo at 10 mg/kg [5]: 94%
- IC50 (Phosphodiesterase 3): > 100 µM

Compound: Cc1cc2c3c(c1)C(c1ccccc1)=N[C@@H](NC(=O)c1nnc4cc(C)nn4c1C)C(=O)N3CC2
- ED50 (Rattus norvegicus): 33.9 mg/kg
- IC50 [3]: 5.35 µM
- IC50 [1]: > 100 µM
- IC50 [4]: > 30 µM
- IC50 (Phosphodiesterase 4 [2]): 0.7 µM
- IC50 (Phosphodiesterase 3): > 100 µM

Compound: Cc1cc2c3c(c1)C(c1ccccc1)=N[C@@H](NC(=O)c1cc4ccccc4cn1)C(=O)N3CC2
- IC50 [1]: > 100 µM
- IC50 (Phosphodiesterase 3): > 100 µM

Compound: Nc1ccc(C(=O)N[C@@H]2N=C(c3ccccc3)c3cc(N)cc4c3N(CC4)C2=O)cc1
- ED50 (Rattus norvegicus): 10.8 mg/kg
- R+V (Phosphodiesterase 4 [6]): 0 90 min
- IC50 [3]: 0.443 µM
- IC50 [1]: 93.2 µM
- IC50 [4]: 1.52 µM
- IC50 (Phosphodiesterase 4 [2]): 0.69 µM
- inhibition in vivo at 10 mg/kg [5]: -71%
- IC50 (Phosphodiesterase 3): 86.8 µM

Compound: CC(C)(C)OC(=O)Nc1cnccc1C(=O)N[C@@H]1N=C(c2ccccc2)c2cccc3c2N(CC3)C1=O
- IC50 [1]: 53.3 µM
- IC50 (Phosphodiesterase 4 [2]): 6.2 µM
- IC50 (Phosphodiesterase 3): 54.7 µM

Compound: O=C(N[C@@H]1N=C(c2ccccc2)c2cc([N+](=O)[O-])cc3c2N(CC3)C1=O)c1cc2ccccc2cn1
- IC50 (Phosphodiesterase 4 [2]): > 100 µM

Compound: CC(=O)Nc1cc2c3c(c1)C(c1ccccc1)=N[C@@H](NC(=O)c1cc(Cl)c(N)c(Cl)c1)C(=O)N3CC2
- IC50 [1]: 3.5 µM
- IC50 (Phosphodiesterase 4 [2]): 0.09 µM
- IC50 (Phosphodiesterase 3): 4.5 µM

Compound: Nc1cc2c3c(c1)C(c1ccccc1)=N[C@@H](NC(=O)c1c(Cl)cncc1Cl)C(=O)N3CC2
- IC50 [3]: 0.038 µM
- IC50 [1]: > 100 µM
- IC50 [4]: 0.213 µM
- IC50 (Phosphodiesterase 4 [2]): 0.2 µM
- IC50 (Phosphodiesterase 3): 80 µM

Compound: O=C(N[C@@H]1N=C(c2ccccc2)c2cccc3c2N(CC3)C1=O)c1cc2ccccc2cn1
- IC50 [1]: > 100 µM
- IC50 (Phosphodiesterase 4 [2]): 5.5 µM
- IC50 (Phosphodiesterase 3): > 100 µM

Compound: COc1ccc([C@]2(C#N)CC[C@@H](C(=O)O)CC2)cc1OC1CCCC1 [CILOMILAST]
- R+V (Phosphodiesterase 4 [6]): 59.5 90 min
- IC50 [4]: 7.3 µM
- ED50 [5]: 3 mg/kg

Compound: Cc1cc2c3c(c1)C(c1ccccc1)=N[C@@H](NC(=O)c1ccncc1)C(=O)N3CC2
- ED50 (Rattus norvegicus): 5.06 mg/kg
- R+V (Phosphodiesterase 4 [6]): 0 90 min
- IC50 [3]: 0.99 µM
- IC50 [1]: 73.4 µM
- IC50 [4]: 61 µM
- inhibition in vivo at 10 mg/kg [5]: -25%
- IC50 (Phosphodiesterase 3): 35.8 µM

Compound: CC(C)(C)OC(=O)Nc1cnccc1C(=O)N[C@@H]1N=C(c2ccccc2)c2cc(N)cc3c2N(CC3)C1=O
- ED50 (Rattus norvegicus): 5.03 mg/kg
- R+V (Phosphodiesterase 4 [6]): 0 90 min
- IC50 [1]: 67.7 µM
- inhibition in vivo at 10 mg/kg [5]: -87%
- IC50 (Phosphodiesterase 3): 58.2 µM

Compound: Nc1cc2c3c(c1)C(c1ccccc1)=N[C@@H](NC(=O)c1cccnc1)C(=O)N3CC2
- ED50 (Rattus norvegicus): 3.2 mg/kg
- IC50 [3]: 0.34 µM
- IC50 [1]: > 100 µM
- IC50 [4]: 1.24 µM
- IC50 (Phosphodiesterase 4 [2]): 0.27 µM
- ED50 [5]: 2.8 mg/kg
- IC50 (Phosphodiesterase 3): > 100 µM
- R+V (Phosphodiesterase 4 [7]): 0 90 min

Compound: COc1cc2c3c(c1)C(c1ccccc1)=N[C@@H](NC(=O)c1cnc4ccccc4c1)C(=O)N3CC2
- IC50 [1]: 16.1 µM
- IC50 (Phosphodiesterase 4 [2]): 1.7 µM
- IC50 (Phosphodiesterase 3): 19.4 µM

Compound: Cc1cc2nnc(C(=O)N[C@@H]3N=C(c4ccccc4)c4cc(N)cc5c4N(CC5)C3=O)c(C)n2n1
- ED50 (Rattus norvegicus): 1.8 mg/kg
- IC50 [3]: 0.26 µM
- IC50 [1]: 72 µM
- IC50 [4]: 0.75 µM
- IC50 (Phosphodiesterase 4 [2]): 0.2 µM
- IC50 (Phosphodiesterase 3): 48.6 µM

Compound: Cc1cc2c3c(c1)C(c1ccccc1)=N[C@@H](NC(=O)c1cc(Cl)c(N)c(Cl)c1)C(=O)N3CC2
- inhibition in vivo at 10 mg/kg (Rattus norvegicus): -21%
- IC50 [1]: > 100 µM
- IC50 (Phosphodiesterase 4 [2]): 0.3 µM
- IC50 (Phosphodiesterase 3): 10.3 µM

Compound: COc1cc2c3c(c1)C(c1ccccc1)=N[C@@H](NC(=O)c1ccncc1)C(=O)N3CC2
- IC50 [1]: 16.1 µM
- IC50 (Phosphodiesterase 4 [2]): 4.4 µM
- IC50 (Phosphodiesterase 3): 40.8 µM

Compound: CC(=O)Nc1cc2c3c(c1)C(c1ccccc1)=N[C@@H](NC(=O)c1ccncc1)C(=O)N3CC2
- IC50 [1]: 30.1 µM
- IC50 (Phosphodiesterase 4 [2]): 0.7 µM
- IC50 (Phosphodiesterase 3): 70 µM

Compound: Nc1cc2c3c(c1)C(c1ccccc1)=N[C@@H](NC(=O)c1cc4ccccc4cn1)C(=O)N3CC2
- inhibition in vivo at 10 mg/kg (Rattus norvegicus): -62.9%
- IC50 [3]: 0.048 µM
- IC50 [1]: > 100 µM
- IC50 [4]: 3.37 µM
- IC50 (Phosphodiesterase 4 [2]): 0.1 µM
- inhibition in vivo at 10 mg/kg [5]: -16%
- IC50 (Phosphodiesterase 3): 48.5 µM

Compound: Nc1cc2c3c(c1)C(c1ccccc1)=N[C@@H](NC(=O)c1ccncc1N)C(=O)N3CC2
- inhibition in vivo at 10 mg/kg (Rattus norvegicus): -82%
- R+V (Phosphodiesterase 4 [6]): 3.5 90 min
- IC50 [3]: 0.08 µM
- IC50 [1]: > 100 µM
- IC50 [4]: 0.398 µM
- IC50 (Phosphodiesterase 4 [2]): 0.7 µM
- inhibition in vivo at 10 mg/kg [5]: -89%
- IC50 (Phosphodiesterase 3): > 100 µM

Compound: O=C(N[C@@H]1N=C(c2ccccc2)c2cccc3c2N(CC3)C1=O)c1ccncc1
- IC50 [1]: > 100 µM
- IC50 (Phosphodiesterase 4 [2]): 20.5 µM
- IC50 (Phosphodiesterase 3): > 100 µM

Compound: COc1cc2c3c(c1)C(c1ccccc1)=N[C@@H](NC(=O)c1nnc4cc(C)nn4c1C)C(=O)N3CC2
- IC50 [1]: 14.1 µM
- IC50 (Phosphodiesterase 4 [2]): 2.7 µM
- IC50 (Phosphodiesterase 3): 46 µM

Compound: O=C(N[C@@H]1N=C(c2ccccc2)c2cccc3c2N(CC3)C1=O)c1cccnc1
- IC50 [1]: > 100 µM
- IC50 (Phosphodiesterase 4 [2]): 10.5 µM
- IC50 (Phosphodiesterase 3): > 100 µM

Compound: COc1ccccc1C(=O)N[C@@H]1N=C(c2ccccc2)c2cc(N)cc3c2N(CC3)C1=O
- IC50 [3]: 0.123 µM
- IC50 [1]: 93.2 µM
- IC50 [4]: 1.06 µM
- IC50 (Phosphodiesterase 4 [2]): 0.5 µM
- IC50 (Phosphodiesterase 3): > 100 µM

Compound: Nc1cc2c3c(c1)C(c1ccccc1)=N[C@@H](NC(=O)c1cnc4ccccc4c1)C(=O)N3CC2
- IC50 [1]: 90.7 µM
- IC50 (Phosphodiesterase 4 [2]): 0.2 µM
- IC50 (Phosphodiesterase 3): 53.9 µM

Compound: O=C(N[C@@H]1N=C(c2ccccc2)c2cc([N+](=O)[O-])cc3c2N(CC3)C1=O)c1cccnc1
- IC50 (Phosphodiesterase 4 [2]): 10.8 µM

Compound: Cc1cc2nnc(C(=O)N[C@@H]3N=C(c4ccccc4)c4cc(N5CCCC5)cc5c4N(CC5)C3=O)c(C)n2n1
- IC50 [1]: > 100 µM
- IC50 (Phosphodiesterase 4 [2]): 0.2 µM
- IC50 (Phosphodiesterase 3): 22.2 µM

Compound: Nc1cc2c3c(c1)C(c1ccccc1)=N[C@@H](NC(=O)c1cc(Cl)c(N)c(Cl)c1)C(=O)N3CC2
- inhibition in vivo at 10 mg/kg (Rattus norvegicus): -61.8%
- IC50 [3]: 0.011 µM
- IC50 [1]: > 100 µM
- IC50 [4]: 0.438 µM
- IC50 (Phosphodiesterase 4 [2]): 0.04 µM
- IC50 (Phosphodiesterase 3): 51.6 µM

Compound: Cc1cc2c3c(c1)C(c1ccccc1)=N[C@@H](NC(=O)c1c(Cl)cncc1Cl)C(=O)N3CC2
- ED50 (Rattus norvegicus): 63.7 mg/kg
- IC50 [1]: 38 µM
- IC50 (Phosphodiesterase 4 [2]): 1 µM
- IC50 (Phosphodiesterase 3): 19.5 µM

Compound: Nc1cc2c3c(c1)C(c1ccccc1)=N[C@@H](NC(=O)c1ccncc1)C(=O)N3CC2
- ED50 (Rattus norvegicus): 1.89 mg/kg
- IC50 [3]: 0.48 µM
- IC50 [1]: > 100 µM
- IC50 [4]: 1.09 µM
- IC50 (Phosphodiesterase 4 [2]): 0.5 µM
- inhibition in vivo at 10 mg/kg [5]: -71%
- IC50 (Phosphodiesterase 3): > 100 µM
- R+V (Phosphodiesterase 4 [7]): 0 90 min

Compound: COc1ccccc1C(=O)N[C@@H]1N=C(c2ccccc2)c2cc(C)cc3c2N(CC3)C1=O
- IC50 [1]: 50.6 µM
- IC50 (Phosphodiesterase 4 [2]): 1.3 µM
- IC50 (Phosphodiesterase 3): 28.8 µM

Compound: Nc1cnccc1C(=O)N[C@@H]1N=C(c2ccccc2)c2cccc3c2N(CC3)C1=O
- IC50 [1]: > 100 µM
- IC50 (Phosphodiesterase 4 [2]): 16.2 µM
- IC50 (Phosphodiesterase 3): 90 µM

Compound: CN(C)c1cc2c3c(c1)C(c1ccccc1)=N[C@@H](NC(=O)c1cc(Cl)c(N)c(Cl)c1)C(=O)N3CC2
- IC50 [1]: 5.3 µM
- IC50 (Phosphodiesterase 4 [2]): 0.2 µM
- IC50 (Phosphodiesterase 3): 3.2 µM

Compound: O=C(N[C@@H]1N=C(c2ccccc2)c2cccc3c2N(CC3)C1=O)c1c(Cl)cncc1Cl
- IC50 [1]: > 100 µM
- IC50 (Phosphodiesterase 4 [2]): 4.7 µM
- IC50 (Phosphodiesterase 3): > 100 µM
